Measurements: patent US20260116874A1, “HETEROAROMATIC INDOLESULFONAMIDES” (SEED Therapeutics, Inc., priority 2023, published 2026)

System: HCT116 colorectal cells
Assay: Cell viability assay (CellTiter-Glo) in HCT116 cells
Format: cell-based
Conditions: Homo sapiens, HCT-116, 72h, CellTiter-Glo, read-out: HCT116 Assay (IC50)
Description: HCT116 colorectal cells were used in these experiments. HCT116 cells were obtained from ATCC. The CellTiter-Glo® Luminescent Cell Viability Assay Reagent was obtained from Promega.
Into a 96-well plate, 3000 HCT116 cells were seeded with 100 μL of media (McCoy's 5A Medium supplemented with 10% FBS, 100 units penicillin, and 100 μg streptomycin per mL) 24h before the experiment. For compound treatment, the liquid handling system-Pico machine was used to prepare all the compounds. Each master plate contained serial dilution of 2 compounds, including the control compound E7820. 10 mM compound stock was added to each well of the assay plate to give final concentrations of […], 0.003, 0.002 and 0 μM. Each concentration was tested in triplicate. After 72h, cell viability was determined using CellTiter-Glo Luminescent Cell Viability Assay Reagent following the manufacturer's recommended protocol. Briefly, equilibrate the assay plate and its contents at room temperature for approximately 30 minutes. 100 μL of CellTiter-Glo reagent was added to each well of the assay plate and the contents were mixed for 2 minutes at 500 rpm on an orbital shaker to induce cell lysis (Fisherbrand). The plate was incubated at room temperature for 10 minutes to stabilize luminescent signal. Then the plate was immediately placed in a plate reader (PerkinElmer Multimode Plate Reader Envision2105) and the luminescence signal (0.5 second per well integration time) was determined. IC50 values were calculated using Graphpad Prism 9 software.
Cell viability assays were performed to compare the potency of Compound 1 to Compound 143.

Q: Which IC50 does the source give for `O=S(=O)(Nc1ccc(Cl)c2c(Cl)c[nH]c12)c1cnc(C2(N3CCOCC3)CCC2)s1` [Compound 75] here?
A: The IC50 was 500 to 1000 nM.

Q: How did the IC50 turn out when `Cc1ncc(S(=N)(=O)Nc2ccc(C)c3c(C#N)c[nH]c23)s1` (centres unmarked) [Compound 33, 4-methyl-7-[[(2-methylthiazol-5-yl)sulfonimidoyl]amino]-1H-indole-3-carbonitrile] was run?
A: Its IC50 is over 1000 nM.

Q: Which IC50 does the source give for `Cc1ccc(NS(=O)(=O)c2cc3n(n2)CCC3)c2[nH]cc(C#N)c12` [Compound 44] here?
A: Its IC50 is 500 to 1000 nM.

Q: `O=S(=O)(Nc1cccc2c(Cl)c[nH]c12)c1cnc(C(F)F)s1` [Compound 13, N-(3-chloro-1H-indol-7-yl)-2-(difluoromethyl)thiazole-5-sulfonamide] was tested. Which IC50 did it give?
A: Its IC50 is 500 to 1000 nM.

Q: For `COc1ncc(S(=O)(=O)Nc2ccc(C)c3c(C#N)c[nH]c23)s1` [Compound 90], which IC50 is on record?
A: The IC50 was under 500 nM.

Q: Which IC50 does the source give for `Cc1ncc(S(=O)(=O)Nc2ccc(Cl)c3c(Cl)c[nH]c23)s1` [Compound 4, N-(3,4-dichloro-1H-indol-7-yl)-2-methyl-thiazole-5-sulfonamide] here?
A: Its IC50 is 500 to 1000 nM.

Q: For `Cc1ccc(NS(=O)(=O)c2cnc(CN3CCC(C#N)C3)s2)c2[nH]cc(C#N)c12` (centres unmarked) [Compound 24, N-(3-cyano-4-methyl-1H-indol-7-yl)-2-((3-cyanopyrrolidin-1-yl)methyl)thiazole-5-sulfonamide], which IC50 is on record?
A: The IC50 was 500 to 1000 nM.

Q: Which IC50 does the source give for `CN1CCCC(c2ncc(S(=O)(=O)Nc3ccc(Cl)c4cc[nH]c34)s2)C1` (centres unmarked) [Compound 16, N-(4-chloro-1H-indol-7-yl)-2-(1-methylpiperidin-3-yl)thiazole-5-sulfonamide] here?
A: Its IC50 is over 1000 nM.

Q: Which IC50 does the source give for `Cc1ccc(NS(=O)(=O)c2cnc(C3(N4CCOCC4)CCC3)s2)c2[nH]cc(C#N)c12` [Compound 32, N-(3-cyano-4-methyl-1H-indol-7-yl)-2-(1-morpholinocyclobutyl)thiazole-5-sulfonamide] here?
A: Its IC50 is 500 to 1000 nM.

Q: Which IC50 does the source give for `Cc1ccc(NS(=O)(=O)c2cnc(C3CCCNC3)s2)c2[nH]cc(C#N)c12` (centres unmarked) [Compound 27, N-(3-cyano-4-methyl-1H-indol-7-yl)-2-(piperidin-3-yl)thiazole-5-sulfonamide] here?
A: The IC50 was over 1000 nM.

Q: `CC(=O)N1CCC(c2ncc(S(=O)(=O)Nc3ccc(C)c4c(C#N)c[nH]c34)s2)CC1` [Compound 29, 2-(1-acetyl-4-piperidyl)-N-(3-cyano-4-methyl-1H-indol-7-yl)thiazole-5-sulfonamide] was tested. Which IC50 did it give?
A: Its IC50 is over 1000 nM.

Q: With `[2H]C([2H])([2H])c1ncc(S(=O)(=O)Nc2ccc(C)c3c(Cl)c[nH]c23)s1` [Compound 92] as the molecule, how does the IC50 read?
A: The IC50 was 500 to 1000 nM.

Q: How did the IC50 turn out when `Cc1ccc(NS(=O)(=O)c2cnc(C(C)N(C)C)s2)c2[nH]cc(C#N)c12` (centres unmarked) [Compound 23, N-(3-cyano-4-methyl-1H-indol-7-yl)-2-(1-(dimethylamino)ethyl)thiazole-5-sulfonamide] was run?
A: The IC50 was 500 to 1000 nM.

Q: `Cc1ncc(S(=O)(=O)N(C)c2ccc(C)c3c(C#N)c[nH]c23)s1` [Compound 30, N-(3-cyano-4-methyl-1H-indol-7-yl)-N,2-dimethyl-thiazole-5-sulfonamide] was tested. Which IC50 did it give?
A: The IC50 was over 1000 nM.

Q: Which IC50 does the source give for `Cc1ccc(NS(=O)(=O)c2cnc(C3CCN(C)CC3)s2)c2[nH]cc(C#N)c12` [Compound 12, N-(3-cyano-4-methyl-1H-indol-7-yl)-2-(1-methyl-4-piperidyl)thiazole-5-sulfonamide] here?
A: Its IC50 is over 1000 nM.

Q: Which IC50 does the source give for `Cc1ccc(NS(=O)(=O)c2cnc(C(C)(C)O)s2)c2[nH]cc(C#N)c12` [Compound 35, N-(3-cyano-4-methyl-1H-indol-7-yl)-2-(1-hydroxy-1-methyl-ethyl)thiazole-5-sulfonamide] here?
A: Its IC50 is 500 to 1000 nM.

Q: With `Cc1ccc(NS(=O)(=O)c2cscn2)c2[nH]cc(C#N)c12` [Compound 85] as the molecule, how does the IC50 read?
A: The IC50 was 500 to 1000 nM.

Q: With `CC(=O)Nc1ncc(S(=O)(=O)Nc2ccc(C)c3c(C#N)c[nH]c23)s1` [Compound 34, N-(5-(N-(3-cyano-4-methyl-1H-indol-7-yl)sulfamoyl)thiazol-2-yl)acetamide] as the molecule, how does the IC50 read?
A: Its IC50 is 500 to 1000 nM.

Q: With `Cc1ccc(NS(=O)(=O)c2cnc(C3CCNCC3)s2)c2[nH]cc(C#N)c12` [Compound 26, N-(3-cyano-4-methyl-1H-indol-7-yl)-2-(4-piperidyl)thiazole-5-sulfonamide] as the molecule, how does the IC50 read?
A: The IC50 was over 1000 nM.

Q: How did the IC50 turn out when `Cc1ccc(NS(=O)(=O)c2cnc(C(F)(F)F)s2)c2[nH]cc(C#N)c12` [Compound 10, N-(3-cyano-4-methyl-1H-indol-7-yl)-2-(trifluoromethyl)thiazole-5-sulfonamide] was run?
A: Its IC50 is over 1000 nM.

Q: `O=S(=O)(Nc1ccc(Cl)c2cc[nH]c12)c1cnc(C2CCCNC2)s1` (centres unmarked) [Compound 15, N-(4-chloro-1H-indol-7-yl)-2-(piperidin-3-yl)thiazole-5-sulfonamide] was tested. Which IC50 did it give?
A: The IC50 was 500 to 1000 nM.

Q: How did the IC50 turn out when `Cc1ccc(NS(=O)(=O)c2ccc3nccn3c2)c2[nH]cc(C#N)c12` [Compound 41] was run?
A: The IC50 was 500 to 1000 nM.

Q: With `Cc1ncc(S(=O)(=O)Nc2ccc(C)c3c(C(F)F)c[nH]c23)s1` [Compound 5, N-(3-(difluoromethyl)-4-methyl-1H-indol-7-yl)-2-methylthiazole-5-sulfonamide] as the molecule, how does the IC50 read?
A: The IC50 was 500 to 1000 nM.

Q: Which IC50 does the source give for `Cc1ncc(S(=O)(=O)Nc2ccc(Cl)c3c(C#N)c[nH]c23)s1` [Compound 6, N-(4-chloro-3-cyano-1H-indol-7-yl)-2-methyl-thiazole-5-sulfonamide] here?
A: Its IC50 is under 500 nM.

Q: With `Cc1ccc(NS(=O)(=O)c2ccn3cc(C#N)nc3c2)c2[nH]cc(C#N)c12` [Compound 40] as the molecule, how does the IC50 read?
A: The IC50 was 500 to 1000 nM.

Q: For `Cc1ccc(NS(=O)(=O)c2cnc(NC(=O)OC(C)(C)C)s2)c2[nH]cc(C#N)c12` [Compound 18, tert-butyl (5-(N-(3-cyano-4-methyl-1H-indol-7-yl)sulfamoyl)thiazol-2-yl)carbamate], which IC50 is on record?
A: The IC50 was 500 to 1000 nM.

Q: How did the IC50 turn out when `Cc1ccc(NS(=O)(=O)c2cnn3c2CCC3)c2[nH]cc(C#N)c12` [Compound 43] was run?
A: Its IC50 is 500 to 1000 nM.

Q: `Cc1ccc(NS(=O)(=O)c2cnc(C3CCN(C(=O)OC(C)(C)C)CC3)s2)c2[nH]cc(C#N)c12` [Compound 25, tert-butyl 4-[5-[(3-cyano-4-methyl-1H-indol-7-yl)sulfamoyl]thiazol-2-yl]piperidine-1-carboxylate] was tested. Which IC50 did it give?
A: Its IC50 is over 1000 nM.

Q: `COCCc1ncc(S(=O)(=O)Nc2ccc(C)c3c(C#N)c[nH]c23)s1` [Compound 7, N-(3-cyano-4-methyl-1H-indol-7-yl)-2-(2-methoxyethyl)thiazole-5-sulfonamide] was tested. Which IC50 did it give?
A: The IC50 was under 500 nM.

Q: With `Cc1ccc(NS(=O)(=O)c2cnc(N3CCOCC3)s2)c2[nH]cc(C#N)c12` [Compound 17, N-(3-cyano-4-methyl-1H-indol-7-yl)-2-morpholino-thiazole-5-sulfonamide] as the molecule, how does the IC50 read?
A: The IC50 was 500 to 1000 nM.

Q: How did the IC50 turn out when `Cc1ccc(NS(=O)(=O)c2cnc(N(C)S(C)(=O)=O)s2)c2[nH]cc(C#N)c12` [Compound 91] was run?
A: Its IC50 is under 500 nM.

Q: `Cc1ccc(NS(=O)(=O)c2cnc(OCC(=O)N3CCCC3C#N)s2)c2[nH]cc(C#N)c12` (centres unmarked) [Compound 65] was tested. Which IC50 did it give?
A: The IC50 was over 1000 nM.

Q: How did the IC50 turn out when `Cc1ccc(NS(=O)(=O)c2ccc3nc(C#N)cn3c2)c2[nH]cc(C#N)c12` [Compound 42] was run?
A: The IC50 was over 1000 nM.

Q: `Cc1ncc(S(=O)(=O)Nc2cccc3c(Cl)c[nH]c23)s1` [Compound 9, N-(3-chloro-1H-indol-7-yl)-2-methylthiazole-5-sulfonamide] was tested. Which IC50 did it give?
A: The IC50 was 500 to 1000 nM.

Q: Which IC50 does the source give for `Cc1ccc(NS(=O)(=O)c2cnc(N)s2)c2[nH]cc(C#N)c12` [Compound 19, 2-amino-N-(3-cyano-4-methyl-1H-indol-7-yl)thiazole-5-sulfonamide] here?
A: Its IC50 is 500 to 1000 nM.

Q: `Cc1nc(C)c(S(=O)(=O)Nc2ccc(C)c3c(C#N)c[nH]c23)s1` [Compound 21, N-(3-cyano-4-methyl-1H-indol-7-yl)-2,4-dimethylthiazole-5-sulfonamide] was tested. Which IC50 did it give?
A: The IC50 was 500 to 1000 nM.

Q: For `O=S(=O)(Nc1ccc(Cl)c2c(Cl)c[nH]c12)c1cnc(C(F)(F)F)s1` [Compound 11, N-(3,4-dichloro-1H-indol-7-yl)-2-(trifluoromethyl)thiazole-5-sulfonamide], which IC50 is on record?
A: Its IC50 is over 1000 nM.

Q: How did the IC50 turn out when `Cc1ccc(NS(=O)(=O)c2cnc(C3CCCN(C)C3)s2)c2[nH]cc(C#N)c12` (centres unmarked) [Compound 28, N-(3-cyano-4-methyl-1H-indol-7-yl)-2-(1-methylpiperidin-3-yl)thiazole-5-sulfonamide] was run?
A: Its IC50 is over 1000 nM.

Q: `C#Cc1c[nH]c2c(NS(=O)(=O)c3cnc(C)s3)ccc(C)c12` [Compound 104] was tested. Which IC50 did it give?
A: The IC50 was over 1000 nM.

Q: With `O=S(=O)(Nc1ccc(Cl)c2c(Cl)c[nH]c12)c1cscn1` [Compound 84] as the molecule, how does the IC50 read?
A: Its IC50 is 500 to 1000 nM.

Q: For `Cc1ncc(CS(=O)(=O)Nc2ccc(C)c3c(C#N)c[nH]c23)s1` [Compound 8, N-(3-cyano-4-methyl-1H-indol-7-yl)-1-(2-methylthiazol-5-yl)methanesulfonamide], which IC50 is on record?
A: The IC50 was over 1000 nM.
